Reference: PMC8572102 (Pharmacogenomics and Personalized Medicine, 2021)
Like-named read-outs stand apart in the source and are kept apart here.

Key:
[1] = assay type: in vivo, human (Chinese patients)
CYP2C19 and CYP3A4 = details: major metabolite of voriconazole, in vitro studies; cited from earlier work

Frequency of supra-therapeutic levels (> 5µg/mL) ([1]; CYP2C19 intermediate metabolizer patients) [%]	Frequency of supra-therapeutic levels (> 5µg/mL) ([1]; CYP2C19 normal metabolizer patients) [%]	Frequency of supra-therapeutic levels (> 5µg/mL) ([1]; CYP2C19 poor metabolizer patients) [%]	Median trough concentration of voriconazole in sub-group analysis ([1]; PM/PPIs users group, excluding cases administered omeprazole or esomeprazole)	concentration at 12 h ([1]; human, plasma, 200 mg, Voriconazole trough concentration, median (IQR), all patients, 250 samples from 114 patients, voriconazole 200mg 12hrly, steady state) [ng/mL]	SMILES	Share of all metabolites (CYP2C19 and CYP3A4)
13.5	15.4	47.8	below supra-therapeutic levels	2100	C[C@@H](c1ncncc1F)[C@](O)(Cn1cncn1)c1ccc(F)cc1F [voriconazole]	
					C[C@@H](c1nc[n+]([O-])cc1F)[C@](O)(Cn1cncn1)c1ccc(F)cc1F [voriconazole N-oxide]	about 74%
